Assay results: US20040229936A1, “Treatment of hepatitis C virus infection with sesquiterpene lactones” (priority 2003, published 2004)

Assays:
[1] = system: HCV RNA replication in Huh-7 cells containing HCV sub-genomic replicons (Ava.5); test: Inhibition of HCV RNA replication (replicon cells, RT and Q-PCR, normalised to GADPH); conditions: for EC50: Hepatitis C virus, 24 h, read-out: EC50 value (effective concentration at which HCV RNA replication was inhibited by 50%)
Description: Huh-7 cells containing HCV sub-genomic replicons (Ava.5) were maintained in DMEM supplemented with 10% heat-inactivated FCS in a humidified atmosphere containing 5% of CO2. The medium also contained 1 mg/mL G418 (an aminoglycosidic antibiotic agent obtained from Promega, WI) as a selective pressure for the maintenance of HCV replicon's RNA replication. […] Cells were treated with sesquiterpene lactones and control compounds at various concentrations. Then, cells were harvested after 24 hr of the treatment. Subsequently, total cellular RNA's were extracted and quantified as follows.
Total RNA of cells was extracted using RNeasy Mini Kit (QIAGEN). The concentration of total RNA was measured by absorption at 260 nm. […] RNA was added with RNase-free ddH2O to a final volume of 10.5 μL and denatured for 10 min at 65° C. Reverse transcription (RT) reactions were carried out at 42° C. for 1 hr using Expand-RT (Roche Biochemicals, Mannheim, Germany) in a total volume of 20 μL containing a previously denatured primer-RNA mixture, 1 mM each of deoxynucleotide triphosphates (dNTPs), 50 units reverse transcriptase, and 20 units RNase inhibitor (Promega, Madison, Wis.).
Quantitative PCR (Q-PCR) was carried out by LightCycler-DNA Master using SYBR Green 1 for real-time detection of double-stranded DNA (dsDNA) (Roche Diagnostics GmbH, Mannheim, Germany). The intensity of fluorescence was recorded versus PCR cycle numbers and the relative amounts of HCV RNA were calculated corresponding to the standard curve. The standard curve was derived from five serial dilutions of reference DNA, the corresponding cDNA of HCV RNA, under criteria recommended by the supplier.
The relative copy numbers HCV RNA and a house-keeping gene, glyceraldehyde-3-phosphate dehydrogenase (GADPH), were determined by Q-PCR utilizing the following primer sets:
PCR was performed as followed: (i) denaturing conditions: 95° C., 60 sec; (ii) amplification conditions: ramp to 95° C., 0 sec; 64° C., 10 sec; 72° C., 10 sec. The specificity of an amplification reaction was determined by performing a melting curve analysis with a temperature range from 65° C. to 95° C.
HCV RNA copy numbers were divided by their corresponding GADPH copy numbers in the same sample for normalization. Effect of sesquiterpene lactones on HCV RNA replication was represented by “relative copy number,” which was obtained by comparing HCV RNA copy numbers with sesquiterpene lactones treatment to HCV RNA copy numbers without sesquiterpene lactones treatment. The latter was designated as 100%. All measurements were performed in triplicates to reach statistical significance.

[2] = system: Huh-7 cells containing HCV sub-genomic replicons (Ava.5); test: Inhibition of cell growth (MTS cell viability / cytotoxicity assay); conditions: Hepatitis C virus, read-out: IC50 value (concentration at which cell growth was inhibited by 50%)
Description: Huh-7 cells containing HCV sub-genomic replicons (Ava.5) were provided by Apath, LLC. […] Cells were maintained in Dulbecco's modified Eagle's medium (DMEM) supplemented with 10% fetal calf serum (FCS) in a humidified atmosphere containing 5% of CO2.
MTS and PMS, both in powder form, were purchased from Sigma or Promega. MTS was dissolved in PBS (2 mg/mL) and PMS (0.38 mg/mL) was dissolved in ddH2O as stock solutions. […] Prior to the assay, a 2 mL MTS/PMS solution containing MTS and PMS (20:1) was added to the cells with 8 mL of phenol red-free DMEM. The cell culture medium was then aspirated off, washed with PBS, and 100 μL of the MTS/PMS mixture was added into each well. After incubation at room temperature for 2 hr, optical densities of each sample were measured at OD490 with a 96-well microtiter plate reader. Data were obtained with six repeats for each treatment.

| Compound | EC50 [1] [nM] | other results |
| --- | --- | --- |
| CC1=CCCC2(C)OC2C2OC(=O)C(CN(C)C)C2CC1 (centres unmarked) [Compound 44, 12-Dimethylaminomethyl-4,8-dimethyl-3,14-dioxa-tricyclo[9.3.0.02,4]tetradec-7-en-13-one] | ≤ 3000 | – |
| CCN(CC)CC1C(=O)OC2C1CCC(C)=CCCC1(C)OC21 (centres unmarked) [Compound 45, 12-Diethylaminomethyl-4,8-dimethyl-3,14-dioxa-tricyclo[9.3.0.02,4]tetradec-7-en-13-one] | ≤ 3000 | – |
| CC1=CCCC2(C)OC2C2OC(=O)C(CN3CCCC3)C2CC1 (centres unmarked) [Compound 46, 4,8-Dimethyl-12-pyrrolidin-1-ylmethyl-3,14-dioxa-tricyclo[9.3.0.02,4]tetradec-7-en-13-one] | ≤ 3000 | – |
| CC1=CCCC2(C)OC2C2OC(=O)C(CN3CCCCC3)C2CC1 (centres unmarked) [Compound 47, 4,8-Dimethyl-12-piperidin-1-ylmethyl-3,14-dioxa-tricyclo[9.3.0.02,4]tetradec-7-en-13-one] | ≤ 3000 | – |
| CC1=CCCC2(C)OC2C2OC(=O)C(CN3CCCCCC3)C2CC1 (centres unmarked) [Compound 48, 12-Azepan-1-ylmethyl-4,8-dimethyl-3,14-dioxa-tricyclo[9.3.0.02,4]tetradec-7-en-13-one] | ≤ 3000 | – |
| CC1=CCCC2(C)OC2C2OC(=O)C(CN3CCOCC3)C2CC1 (centres unmarked) [Compound 49, 4,8-Dimethyl-12-morpholin-4-ylmethyl-3,14-dioxa-tricyclo[9.3.0.02,4]tetradec-7-en-13-one] | ≤ 6000 | – |
| CC1=CCCC2(C)OC2C2OC(=O)C(CN3CCCC3C(=O)O)C2CC1 (centres unmarked) [Compound 50, 1-(4,8-Dimethyl-13-oxo-3,14-dioxa-tricyclo[9.3.0.02,4]tetradec-7-en-12-ylmethyl)-pyrrolidine-2-carboxylic acid] | ≤ 3000 | IC50 [2]: 8100 nM |
| CC1=CCCC2(C)OC2C2OC(=O)C(CSCC(N)C(=O)O)C2CC1 (centres unmarked) [Compound 53, 2-Amino-3-(4,8-dimethyl-13-oxo-3,14-dioxa-tricyclo[9.3.0.02,4]tetradec-7-en-12-ylmethylsulfanyl)-propionic acid] | ≤ 6000 | – |
| IFNα | – | inhibition of HCV RNA replication ([1]; 50 IU/1 mL of IFNα alone): 25%; inhibition of HCV RNA replication ([1]; 100 IU/mL of IFNα alone): 40% |
